In ChEMBL document CHEMBL1201862, “PubChem BioAssay data set” (2004):
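The compound was tested at five concentrations on cells cultured in 96-well plates, with a 48-hour exposure period. GI50 is the concentration that inhibits growth by half.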 Active and inactive are the calls of the source. Cut-off read from the data, not from the text of the source: active = GI50 up to about 1.1 µM and inactive = higher. Square brackets hold non-standard residues; d marks the D form. Peptide text beside a SMILES is read from it. 2Nal = N[CH](Cc1ccc2ccccc2c1)C(=O)O

What was measured:
Assay in all cases: NCI anticancer screen, dose series, 48 h
[1] = system: MDA-N
[2] = system: HCT-15
[3] = system: KM12
[4] = system: M14
[5] = system: SNB-19
[6] = system: HCT-116
[7] = system: TK-10
[8] = system: MDA-MB-435
[9] = system: NCI/ADR-RES
[10] = system: HL-60
[11] = system: Hs-578T
[12] = system: HT-29
[13] = system: OVCAR-3
[14] = system: A549
[15] = system: NCI-H522
[16] = system: SK-OV-3
[17] = system: BT-549
[18] = system: CAKI-1
[19] = system: KM-20L2
[20] = system: NCI-H460

Row | Structure (SMILES) | GI50 [1] | GI50 [2] | GI50 [3] | GI50 [4] | GI50 [5] | GI50 [6] | GI50 [7] | GI50 [8] | GI50 [9] | GI50 [10] | GI50 [11] | GI50 [12] | GI50 [13] | GI50 [14] | GI50 [15] | GI50 [16] | GI50 [17] | GI50 [18] | GI50 [19] | GI50 [20]
1 | NCCNc1ccc(NCCN)c2c1C(=O)c1c(O)ccc(O)c1C2=O | 1.13 µM (inactive) | 0.161 µM | 0.118 µM (active) | 0.0149 µM (active) | 0.00944 µM (active) | 0.051 µM (active) | 0.428 µM (active) | 1.15 µM (inactive) | 0.192 µM (active) | 0.0407 µM (active) | 0.148 µM (active) | 0.0659 µM (active) | 0.486 µM (active) | 0.00392 µM (active) | 0.0324 µM (active) | 0.0266 µM (active) | 0.653 µM (active) | 0.00711 µM (active) | 0.0181 µM (active) | < 0.001 µM (active)
2 | C/C(=C/C(=O)Nc1ccccc1)Nc1onc(C)c1C | – | > 100 µM | > 100 µM (inactive) | – | > 100 µM (inactive) | > 100 µM (inactive) | – | – | > 100 µM (inactive) | > 100 µM (inactive) | – | > 100 µM (inactive) | > 100 µM (inactive) | > 100 µM (inactive) | > 100 µM (inactive) | > 100 µM (inactive) | – | – | > 100 µM (inactive) | > 100 µM (inactive)
3 | O=C[C@@H](CO)O[C@H](C=O)n1cnc2c(=O)nc[nH]c21 | 108 µM (inactive) | 73.8 µM | 335 µM (inactive) | 505 µM (inactive) | 638 µM (inactive) | 177 µM (inactive) | 596 µM (inactive) | 243 µM (inactive) | 438 µM (inactive) | 65.8 µM (inactive) | 664 µM (inactive) | 486 µM (inactive) | 290 µM (inactive) | 849 µM (inactive) | 146 µM (inactive) | 501 µM (inactive) | 282 µM (inactive) | 319 µM (inactive) | 426 µM (inactive) | 603 µM (inactive)
4 | CCOc1cccc2sc(N)nc12 | – | > 100 µM | > 100 µM (inactive) | > 100 µM (inactive) | > 100 µM (inactive) | > 100 µM (inactive) | > 100 µM (inactive) | – | – | > 100 µM (inactive) | – | > 100 µM (inactive) | > 100 µM (inactive) | > 100 µM (inactive) | > 100 µM (inactive) | > 100 µM (inactive) | – | > 100 µM (inactive) | > 100 µM (inactive) | > 100 µM (inactive)
5 | COc1cccc(N[C@@H]2c3cc4c(cc3C(c3cc(OC)c(O)c(OC)c3)[C@H]3C(=O)OCC32)OCO4)c1 (stereo not given in full) | – | 0.552 µM | 1.65 µM (inactive) | – | 0.328 µM (active) | 0.693 µM (active) | – | – | 0.348 µM (active) | 0.0499 µM (active) | – | 0.973 µM (active) | 8.53 µM (inactive) | 0.0213 µM (active) | 1.21 µM (inactive) | 1.32 µM (inactive) | – | 0.197 µM (active) | 1.46 µM (inactive) | < 0.01 µM (active)
6 | CC(C)C(NC(=O)C(CCCCN)NC(=O)C(Cc1c[nH]c2ccccc12)NC(=O)C(Cc1ccc(O)cc1)NC(=O)C(CS)NC(=O)C(N)Cc1ccc2ccccc2c1)C(=O)NC(CS)C(=O)NC(C(N)=O)C(C)O (stereo not given) (H-[2Nal]CYWKVCT-NH2; configuration not given here) | > 12.5 µM (inactive) | > 12.5 µM | > 12.5 µM (inactive) | > 12.5 µM (inactive) | > 100 µM (inactive) | > 12.5 µM (inactive) | – | > 12.5 µM (inactive) | > 12.5 µM (inactive) | > 12.5 µM (inactive) | > 12.5 µM (inactive) | > 12.5 µM (inactive) | > 12.5 µM (inactive) | > 12.5 µM (inactive) | > 12.5 µM (inactive) | > 12.5 µM (inactive) | – | > 12.5 µM (inactive) | > 100 µM (inactive) | > 12.5 µM (inactive)
